Results taken from patent EP2296651B1, “5-HYDROXYMETHYL-OXAZOLIDIN-2-ONE DERIVATIVES FOR TREATING BACTERIAL INTESTINAL DISEASES” (Actelion Pharmaceuticals Ltd., priority 2008, dated 2009).
In brackets after ≈: the same amount, converted by molar mass.

Legend:
[1] = test system: C. difficile A-1050 (ATCC 43596); assay: Spore formation at sub-MIC concentrations; format: cell-based; conditions: 0.5x the MIC; 4 days anaerobic incubation at 37°C
[2] = test system: C. difficile strain NC 13366; format: cell-based; conditions: 1 and 8 µg/ml; supernatants at day 5; high density stationary phase cultures
[3] = test system: S. aureus ATCC 43300 (MRSA); assay: Broth microdilution MIC, aerobic Gram-positive bacteria; conditions: Staphylococcus aureus, 48 h
[4] = test system: E. faecalis H 7094; assay: as above; conditions: Enterococcus faecalis, H7094, 48 h
[5] = test system: C. difficile NC 13366; assay: Broth microdilution MIC, anaerobic; format: cell-based, Clostridium difficile; conditions: Clostridioides difficile, NC13366, 48h at 37°C, quinolone-resistant hypervirulent strain, read-out: MIC regarding C. difficile NC 13366
[6] = test system: E. faecalis H 6279; assay: Broth microdilution MIC, aerobic Gram-positive bacteria; conditions: Enterococcus faecalis, H6279, 48 h
[7] = test system: E. faecalis H 4060; assay: as above; conditions: Enterococcus faecalis, H4060, 48 h
[8] = test system: E. faecium H 7969; assay: as above; conditions: Enterococcus faecium, H7969, 48 h
[9] = test system: Bacteroides fragilis A-294 T 9174; assay: Agar dilution MIC, anaerobic strains; format: cell-based; conditions: A294T9174, 48 h
[10] = test system: Bacteroides fragilis A-293 B 2518; assay: Agar dilution MIC, anaerobic strains; format: cell-based; conditions: A293B2518, 48 h
[11] = test system: E. faecalis ATCC 29212; assay: Broth microdilution MIC, aerobic Gram-positive bacteria; conditions: Enterococcus faecalis, ATCC29212, 48 h
[12] = test system: Bifidobacterium bifidum A-1258 DSM 20456; assay: Agar dilution MIC, anaerobic strains; format: cell-based; conditions: DSM20456, 48 h
[13] = test system: S. aureus S1 (LZD-R); assay: Broth microdilution MIC, aerobic Gram-positive bacteria; conditions: Staphylococcus aureus, 48 h
[14] = test system: Clostridium difficile A- 1179 NC 13366; assay: Agar dilution MIC, anaerobic strains; format: cell-based; conditions: Clostridioides difficile, A1179NC13366, 48 h
[15] = test system: E. faecalis H 6897; assay: Broth microdilution MIC, aerobic Gram-positive bacteria; conditions: Enterococcus faecalis, H6897, 48 h
[16] = test system: Eubacterium limosum A-1259 DSM 20698; assay: Agar dilution MIC, anaerobic strains; format: cell-based
[17] = test system: E. faecium H 7965; assay: Broth microdilution MIC, aerobic Gram-positive bacteria; conditions: Enterococcus faecium, H7965, 48 h

With O=C(O)c1cn(C2CC2)c2cc(N3CCC(O)(COc4ccc(N5C[C@H](CO)OC5=O)cc4F)CC3)c(F)cc2c1=O [Example 1, 1-cyclopropyl-6-fluoro-7-{4-[2-fluoro-4-((R)-5-hydroxymethyl-2-oxo-oxazolidin-3-yl)-phenoxymethyl]-4-hydroxy-piperidin-1-yl}-4-oxo-1,4-dihydro-quinoline-3-carboxylic acid] the “spores of total cell count” value [1] was under 1%, the “de novo toxin A production” value [2] was “inhibited de novo toxin A production” and the MIC [3] was 0.25 µg/mL (≈ 0.427 µM). The MIC [4] was 0.5 µg/mL (≈ 0.854 µM), the MIC [5] was 0.06 µg/mL (≈ 0.102 µM) and the MIC [6] was 0.25 µg/mL (≈ 0.427 µM). The MIC [7] was 0.25 µg/mL (≈ 0.427 µM), the MIC [8] was 1 µg/mL (≈ 1.71 µM) and the MIC [9] was 4 µg/mL (≈ 6.83 µM). It also gave an MIC [10] of 4 µg/mL (≈ 6.83 µM), an MIC [11] of 0.25 µg/mL (≈ 0.427 µM) and an MIC [12] of 0.5 µg/mL (≈ 0.854 µM). For the same compound, the MIC [13] was 1 µg/mL (≈ 1.71 µM), the MIC [14] was at most 0.06 µg/mL and the MIC [15] was 1 µg/mL (≈ 1.71 µM). The MIC ([16]; DSM20698, 48 h, Eubacterium limosum A-1259, DSM 20698) was 1 µg/mL (≈ 1.71 µM), the “less activity against Eubacterium limosum A-1259 compared to the compound of Example 5 of WO 2005/058888” value ([16]; versus R1) was 4 times and the MIC [17] was 0.5 µg/mL (≈ 0.854 µM).
